The nature of series [1]: Caco-2 cells monolayer absorption and bidirectional transport experiment. The format is in vitro ADME, human. Conditions: human; for Papp A→B at 2 h, 2 µM: read-out: Mean Papp AP to BL; for Papp B→A at 2 h, 2 µM: read-out: Mean Papp BL to AP; for recovery at 2 h: direction not specified, read-out: total recovery rate of control drugs. How it is done: (§1) The samples included three control drugs (fenoterol, propranolol, and digoxin) and 2,5-BHPA. […] For transfer in the AP→BL direction, 0.075 mL drug solution was added to the AP side as the supply pool, and 0.25 mL HBSS solution was added to the BL side as the receiving pool. In the BL→AP direction, 0.25 mL compound solution was added to the BL side as the supply pool, and 0.075 mL HBSS solution was added to the AP side as the receiving pool. The transwell plate was then cultured in an incubator at 37 °C for 2 h. Samples on the AP side and BL side were collected, respectively. Then, acetonitrile containing an internal label was added to each upper chamber to lyse transport membranes. The total recovery was calculated by collecting the amount of lead compound absorbed on the membrane surface or accumulated in the cell. Finally, the concentration of each sample was calculated as the ratio of the peak area between the compound and the inner target through mass spectrum analysis (API 4000).
(§2) Papp = (dCr/dt) × Vr/(A × C0)(2) where dCr/dt is the cumulative compound concentration per unit of time (µM/s); Vr is the volume in the receiving hole (mL); A is the transport membrane area; and C0 is the compound initiation concentration (µM).
For orientation: Passage across Caco-2 layers is used to estimate intestinal permeability.

Series [2] relates to Caco-2 cells monolayer. The series is described as above. The format is in vitro ADME, human. How it is done: as §1, §2
Series [3] has as its system Caco-2 cell model.
Procedure: Caco-2 cells were cultured in a CO-150 INNOVA CO^2 incubator with DEME (Dulbecco’s modified eagle) medium, including 10% fetal calf serum, 1% non-essential amino acid, and penicillin (streptomycin dual) resistance solution. The cells were cultured at constant temperature in a closed incubator with the following conditions: 37 °C, 5% CO^2, and 95% relative humidity. When the cell growth reached the fusion, 0.05% trypsin and EDTA were added and digested at 37 °C for 5 min. The cells were inoculated on a 96-well transwell culture plate with an inoculation concentration of 1 × 10^5/cm^2 for the cell transport experiment. After inoculation, the solution was changed every 4 to 6 days, and the culture was observed by electron microscope at 21 to 28 days [6]. The TEER value was detected by a Millicell-ERS transmembrane resistance meter as the integrity indicator to judge the monolayer model of Caco-2 cells. TEER = (Rt − R0) × A (Ω cm^2)(1) where Rt is the resistance value of Cell pore; R0 is the resistance value of blank; and A is the compartment effective membrane area
Where [4] appears, read: Caco-2, 2 µM, 0.1% bull serum albumin added.
Setting [5] is: 2 µM, 0.1% bull serum albumin added.

Read-outs that look alike come from different tables or passages of the source. A value given as a limit tells only on which side of the number the result lay.

By efflux ratio is commonly meant the permeability from basolateral to apical divided by that in the opposite direction, in the common usage.

In the case of `C[C@H]1O[C@@H](O[C@H]2[C@@H](O)C[C@H](O[C@H]3[C@@H](O)C[C@H](O[C@H]4CC[C@@]5(C)[C@H](CC[C@@H]6[C@@H]5C[C@@H](O)[C@]5(C)[C@@H](C7=CC(=O)OC7)CC[C@]65O)C4)O[C@@H]3C)O[C@@H]2C)C[C@H](O)[C@@H]1O` [Digoxin, digoxin, reference compound], in series [1] (setting [4]), the efflux ratio at 2 h, 2 µM is 485; the Papp A→B at 2 h, 2 µM is 0.023 ± 0.001 ×10⁻⁶ cm/s; the Papp B→A at 2 h, 2 µM was determined as 10.4 ± 0.911 ×10⁻⁶ cm/s. Also, the efflux ratio at 2 h, 2 µM in series [1] (Caco-2, 2 μM, no BSA) came out at 260. In series [1] (Caco-2, 2 μM, no BSA, 2 h), the Papp A→B at 2 h, 2 µM came out at 0.033 ± 0.003 ×10⁻⁶ cm/s and the Papp B→A at 2 h, 2 µM was 9.05 ± 0.62 ×10⁻⁶ cm/s. The recovery at 2 h in series [1] (Caco-2, text summary, no BSA) is over 83%. In addition, in series [2] (setting [5]), the “Recoveries AP to BL” value was 84.14 ± 3.13%, the “Recoveries BL to AP” value stood at 93.35 ± 3.56%, the “Total Recoveries AP to BL” value worked out at 85.37 ± 3.52% and the “Total Recoveries BL to AP” value is recorded as 93.43 ± 4.63%. For the same molecule, in series [2] (2 μM, no BSA), the “Recoveries AP to BL” value stood at 83.66 ± 3.14%, the “Recoveries BL to AP” value turned out to be 82.87 ± 4.38%, the “Total Recoveries AP to BL” value turned out to be 86.44 ± 3.51% and the “Total Recoveries BL to AP” value was determined as 83.31 ± 2.40%.
For `CC(Cc1ccc(O)cc1)NCC(O)c1cc(O)cc(O)c1` (centres unmarked) [Fenoterol, fenoterol, reference compound], the Papp A→B at 2 h, 2 µM in series [1] (setting [4]) turned out to be 0.091 ± 0.012 ×10⁻⁶ cm/s; in series [1] (Caco-2, 2 μM, no BSA, 2 h), 0.055 ± 0.008 ×10⁻⁶ cm/s. Also, the recovery at 2 h in series [1] (Caco-2, no BSA) is over 83%. Moreover, the “Recoveries AP to BL” value is given as 94.38 ± 5.14% in series [2] (setting [5]) and 87.67 ± 1.24% in series [2] (2 μM, no BSA). In addition, the “Total Recoveries AP to BL” value in series [2] (setting [5]) was 96.16 ± 6.72%; in series [2] (2 μM, no BSA), 90.92 ± 4.23%.
Regarding `CC(C)NCC(O)COc1cccc2ccccc12` (centres unmarked) [Propranolol, propranolol, reference compound], in series [2] (Caco-2), the “total recovery rate AP→BL” value was 100% and the “total recovery rate of control drugs” value is recorded as “more than 83%”.
As for `NNC(=O)NN1C(=O)c2cc(S(=O)(=O)[O-])cc3c(N)c(S(=O)(=O)[O-])cc(c23)C1=O.[Li+].[Li+]` [fluorescence yellow], in series [3], the “Papp of fluorescence yellow” value is listed as 0.15 ± 0.027 × 10^−6 cm·s^−1 and the transmittance came to 0.04 ± 0.005%.

The values are drawn from PMC6950567, “Evaluation of Marine Diindolinonepyrane in Vitro and in Vivo: Permeability Characterization in Caco-2 Cells Monolayer and Pharmacokinetic Properties in Beagle Dogs” (Marine Drugs, 2019).
